Experimental data as given in patent publication US10406238B2, “Ligand ionophore conjugates” (PURDUE RESEARCH FOUNDATION, priority 2015, dated 2019).

Columns and labels:
folate receptors = conditions: read-out: binding affinity Kd; cited from earlier work
FRβ-expressing RAW cells = experiment: Endosomal escape in FRβ-expressing RAW cells (confocal); assay type: cell-based
folate receptor = target: T1, folate receptor (Homo sapiens, UniProt P15328); experiment: Binding affinity to folate receptors in KB cells
T1 construct: endogenous in cells; host or cells: KB cells (human; maintained at Purdue Cancer Cell Culture Facility)

KB cells [1] = experiment: Confocal microscopy for endosomal release in KB cells; assay type: cell-based, human
KB cells [2] = test system: KB cells
KB cells [3] = experiment: cells; conditions: Homo sapiens, read-out: IC50 concentration, growth of KB cells

T1 sequence (P15328 25-234): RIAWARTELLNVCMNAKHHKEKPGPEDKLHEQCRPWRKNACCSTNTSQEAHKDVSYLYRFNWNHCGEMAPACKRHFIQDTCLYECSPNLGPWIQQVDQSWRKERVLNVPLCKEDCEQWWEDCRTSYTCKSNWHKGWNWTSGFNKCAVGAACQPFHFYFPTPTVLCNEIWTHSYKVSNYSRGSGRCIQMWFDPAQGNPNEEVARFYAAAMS

SMILES: Nc1nc2ncc(CNc3ccc(C(=O)N[C@@H](CCC(=O)O)C(=O)O)cc3)nc2c(=O)[nH]1 [Folic acid]
- Kd (folate receptors): 0.1 nM

SMILES: CCN(CC)c1ccc2c(-c3ccc(S(=O)(=O)NCCSSC[C@H](CC(=O)O)NC(=O)[C@H](CCCCN)NC(=O)[C@H](CC(=O)O)NC(=O)CC[C@H](NC(=O)c4ccc(NCc5cnc6nc(N)[nH]c(=O)c6n5)cc4)C(=O)O)cc3S(=O)(=O)[O-])c3ccc(=[N+](CC)CC)cc-3oc2c1 [compound 2, reference compound]
- accumulation of dye inside the endosomes (FRβ-expressing RAW cells; 10 nM FR, by 2 h, with or without folate-nigericin conjugate 1): significant accumulation

SMILES: CO[C@@H]1C[C@@H](C[C@H]2CC[C@H](C)C([C@@H](C)C(=O)OCCSSC[C@H](NC(=O)[C@H](CC(=O)O)NC(=O)[C@H](CC(=O)O)NC(=O)[C@H](CCCNC(=N)N)NC(=O)[C@H](CC(=O)O)NC(=O)CC[C@H](NC(=O)c3ccc(NCc4cnc5nc(N)[nH]c(=O)c5n4)cc3)C(=O)O)C(=O)O)O2)O[C@]2(O[C@@](C)(C3CC[C@@](C)([C@@H]4O[C@@H]([C@@H]5O[C@@](O)(CO)[C@H](C)C[C@@H]5C)C[C@@H]4C)O3)C[C@H]2C)[C@@H]1C (some centres unmarked) [conjugate 1]
- binding affinity to folate receptors compared to folate-rhodamine compound 2 (folate receptor): 5 times lower
- endosome size versus cells not treated with conjugate (FRβ-expressing RAW cells; 100 nM FN with 10 nM FR, FIG. 9): somewhat larger
- effective concentration for co-incubation (KB cells [1]): 200 nM
- endosomal release of the rhodamine dye (KB cells [1]): lower
- release of rhodamine dye from the endosome (KB cells [1]): considerable release
- time of high release of rhodamine dye from endosomes (KB cells [1]): 1 to 3 h

SMILES: CO[C@@H]1C[C@@H](C[C@H]2CC[C@H](C)C([C@@H](C)C(=O)O)O2)O[C@]2(O[C@@](C)(C3CC[C@@](C)([C@@H]4O[C@@H]([C@@H]5O[C@@](O)(COC(=O)NCCSSC[C@H](NC(=O)[C@H](CC(=O)O)NC(=O)[C@H](CC(=O)O)NC(=O)[C@H](CCCNC(=N)N)NC(=O)[C@H](CC(=O)O)NC(=O)CC[C@H](NC(=O)c6ccc(NCc7cnc8nc(N)[nH]c(=O)c8n7)cc6)C(=O)O)C(=O)O)[C@H](C)C[C@@H]5C)C[C@@H]4C)O3)C[C@H]2C)[C@@H]1C (some centres unmarked) [conjugate 5]
- binding affinity to folate receptors compared to folate-rhodamine compound 2 (folate receptor): three times lower

SMILES: CO[C@@H]1C[C@@H](C[C@H]2CC[C@H](C)[C@H]([C@@H](C)C(=O)O)O2)O[C@]2(O[C@](C)([C@H]3CC[C@@](C)([C@@H]4O[C@@H]([C@H]5O[C@@](O)(CO)[C@H](C)C[C@@H]5C)C[C@@H]4C)O3)C[C@H]2C)[C@@H]1C [nigericin]
- toxicity to the cells (KB cells [2]): not toxic
- IC50 (KB cells [3]): 12 µM
